# Laboratory results from patent US5869460A, “Sulfated and phosphated saccharide derivatives, process for the preparation of the same and use thereof” (Sanwa Kaguku Kenkyusho Co., Ltd., priority 1995, dated 1999).
# Experiments:
# L-selectin = settings: in vitro, plastic plate; BIOCHEM. BIOPHY. RES. COM. 190, 426 (1993); cited from earlier work
# [1] = system: lung injury model, activation of whole body complements by CVF; settings: INT. IMMUNOL. 7, 1107 (1995); cited from earlier work
# [2] = system: lung injury model, lgG immunocomplex; settings: INT. IMMUNOL. 7, 1107 (1995); cited from earlier work
# [3] = system: lung damage model induced by cobra venom factor (CVF); bleeding; experiment: Anti-inflammatory action to lung damage model induced by CVF: index of bleeding (hemoglobin absorbance, 541 nm, in lung homogenate supernatant); type: in vivo, Lewis rats; settings: for inhibition in vivo at 0.2 mg: Rattus norvegicus, iv, 0.5 h, read-out: Inhibition rate (%), index of bleeding
# Experimental: (§1) Anti-inflammatory action to lung damage model induced by CVF Compounds obtained by Examples and an exemplary known compound (sulfatide) were selected as Test Compounds to check an inflammatory action thereof to a lung damage model induced by cobra venom factor (CVF), in accordance with the method described by M. S. Mulligan et al ["J. IMMUNOL.", Vol.151, page 6410 (1993); and "INT. IMMUNOL.", Vol. 7, page 1107 (1995)].
# (§2) Namely, the test compound was intravenously injected by an amount of 0.2 mg/rat to test animals (Lewis rats, age of 8 weeks, 5 animals in each group). After lapsed 5 minutes from administration, CVF (20U/2 ml/kg) was administered in a tail vein, and after 30 minutes, a laparotomy was carried out under nembutal anesthesia to perfuse the lung with phosphate-buffered saline (PBS, pH7.4) by injecting the same from right ventricle and to exenterate the lung. The extracted lung was homogenized with phosphate buffer (pH 7.4), centrifuged to collect a supernatant, and determined absorbance which was admitted as index of bleeding (It measures an amount of hemoglobin and thus detection wave-length was set to 541 nm).
# (§3) Each inhibition rate (%) was calculated by
# (§4) 100×[1-(value of test compound-value of negative control)/(value of positive control-value of negative control)].
# [4] = system: lung damage model induced by cobra venom factor (CVF); infiltration in neutrocyte (myeloperoxidase); experiment: Anti-inflammatory action to lung damage model induced by CVF: myeloperoxidase activity as index of infiltration in neutrocyte; type: in vivo, Lewis rats; settings: for inhibition in vivo at 0.2 mg: Rattus norvegicus, iv, 0.5 h, read-out: Inhibition rate (%), myeloperoxidase activity as index of infiltration in neutrocyte
# Experimental: as §1, §2
# On the other hand, the precipitation obtained by centrifugation was sonicated in the presence of cetrimide and centrifuged to obtain a supernatant, an activity myeloperoxidase therein being measured as an index of infiltration in neutrocyte.
# as §3, §4
Compound,binding specificity to L-selectin (L-selectin),inflammation inhibition effect [1],inflammation inhibition effect [2],inhibition in vivo at 0.2 mg [3],inhibition in vivo at 0.2 mg [4],other results
CCCCCCCCCCCCCCC(CCCCCCCCCCCCCC)CO[C@@H]1O[C@H](CO)[C@@H](O[C@@H]2O[C@H](CO)[C@H](O)[C@H](OS(=O)(=O)O)[C@H]2O)[C@H](O)[C@H]1O [2-tetradesyl hexadesyl O-β-D-galactopyranosyl-(1→4)-β-D-glucopyranoside 3'-sulfate],show a binding specificity to L-selectin,–,–,–,–,–
CCCCCCCCCCCCCCC(CCCCCCCCCCCCCC)CO[C@@H]1O[C@H](CO)[C@H](O)[C@H](OS(=O)(=O)O)[C@H]1O [2-tetradesyl hexadesyl β-D-galactopyranoside 3-sulfate],show a binding specificity to L-selectin,shows inflammation inhibition effect,shows inflammation inhibition effect,–,–,–
"CCCCCCCCCCCCCCC(CCCCCCCCCCCCCC)CO[C@@H]1O[C@H](CO)[C@H](O)[C@H](OP(=O)(O)O)[C@H]1O[C@@H]1O[C@@H](C)[C@@H](O)[C@@H](OP(=O)(O)O)[C@@H]1O [Example 28-2, tetrasodium 2-tetradecylhexadecyl O-α-L-fucopyranosyl-(1→2)-β-D-galactopyranoside 3,3'-diphosphate]",–,–,–,63%,55%,–
"CCCCCCCCCCCCCCC(CCCCCCCCCCCCCC)CO[C@@H]1O[C@H](COS(=O)(=O)O)[C@H](O)[C@H](OS(=O)(=O)O)[C@H]1O[C@@H]1O[C@@H](C)[C@@H](O)[C@@H](O)[C@@H]1O [Example 29, Disodium 2-tetradecylhexadesyl O-α-L-fuconyranosyl-(1→2)-β-D-galactopyranoside 3,6-disulfate]",–,–,–,67%,65%,–
"CCCCCCCCCCCCCCC(CCCCCCCCCCCCCC)CO[C@@H]1O[C@H](COS(=O)(=O)O)[C@H](O)[C@H](OS(=O)(=O)O)[C@H]1O[C@@H]1O[C@@H](C)[C@@H](O)[C@@H](OS(=O)(=O)O)[C@@H]1O [Example 30, Trisodium 2-tetradecylhexadecyl O-α-L-fucopyranosyl-(1→2)-β-D-galactopyranoside 3,3',6-trisulfate]",–,–,–,70%,62%,–
Sulfatide [reference compound],–,shows inflammation inhibition effect,shows inflammation inhibition effect,–,–,"Inhibition rate (%), index of bleeding ([3]; 0.2 mg/rat i.v., 5 min before CVF (20U/2 ml/kg, tail vein), hemoglobin absorbance at 541 nm, Table 1): 53%; Inhibition rate (%), myeloperoxidase activity as index of infiltration in neutrocyte ([4]; 0.2 mg/rat i.v., 5 min before CVF (20U/2 ml/kg, tail vein), lung precipitation, Table 2): 50%"
